Assay results: patent US20040057908A1, “Oral compositions and use thereof” (priority 2003, published 2004)
“And” between values parts separate entries of the source, which are not always exact repeats. Identical values can stand only once.

Experiments:
[1] = system: dental caries; assay: Rat caries experiment: caries scores (Larson's modification of Keyes' system); format: in vivo, Sprague Dawley rats; settings: Ds and Dm levels; tt-farnesol Dm only; p<0.05
Experimental: Seven litters of ten female Sprague Dawley rats aged 14 days were purchased with their dams from Charles River (Kingston, N.Y., USA). […] The experiment proceeded for five weeks, at which time the animals were killed by CO2 asphyxiation. The lower left jaw was aseptically dissected, suspended in 5.0 mL of sterile saline solution, and sonicated (three 10-second pulses with 5-second intervals at 30 watts, Branson Sonifier 450). The suspension was plated on mitis salivarius agar plus streptomycin to estimate S. sobrinus population and on blood agar to determine total cultivable flora (TCF). […] The determination of caries score was blind by codification of the jaws and was done by 1 calibrated examiner. […] The level of significance was 5%.

[2] = target: T1, GTF B (Streptococcus mutans serotype c, UniProt P08987); assay: GTF activity in solution, GTF B; format: biochemical; settings: read-out: GTF B sol. % of Inhib.
T1 construct: made in house; host or cells: Streptococcus milleri KSB8 (culture supernatant)
T1 sequence (P08987 35-1476): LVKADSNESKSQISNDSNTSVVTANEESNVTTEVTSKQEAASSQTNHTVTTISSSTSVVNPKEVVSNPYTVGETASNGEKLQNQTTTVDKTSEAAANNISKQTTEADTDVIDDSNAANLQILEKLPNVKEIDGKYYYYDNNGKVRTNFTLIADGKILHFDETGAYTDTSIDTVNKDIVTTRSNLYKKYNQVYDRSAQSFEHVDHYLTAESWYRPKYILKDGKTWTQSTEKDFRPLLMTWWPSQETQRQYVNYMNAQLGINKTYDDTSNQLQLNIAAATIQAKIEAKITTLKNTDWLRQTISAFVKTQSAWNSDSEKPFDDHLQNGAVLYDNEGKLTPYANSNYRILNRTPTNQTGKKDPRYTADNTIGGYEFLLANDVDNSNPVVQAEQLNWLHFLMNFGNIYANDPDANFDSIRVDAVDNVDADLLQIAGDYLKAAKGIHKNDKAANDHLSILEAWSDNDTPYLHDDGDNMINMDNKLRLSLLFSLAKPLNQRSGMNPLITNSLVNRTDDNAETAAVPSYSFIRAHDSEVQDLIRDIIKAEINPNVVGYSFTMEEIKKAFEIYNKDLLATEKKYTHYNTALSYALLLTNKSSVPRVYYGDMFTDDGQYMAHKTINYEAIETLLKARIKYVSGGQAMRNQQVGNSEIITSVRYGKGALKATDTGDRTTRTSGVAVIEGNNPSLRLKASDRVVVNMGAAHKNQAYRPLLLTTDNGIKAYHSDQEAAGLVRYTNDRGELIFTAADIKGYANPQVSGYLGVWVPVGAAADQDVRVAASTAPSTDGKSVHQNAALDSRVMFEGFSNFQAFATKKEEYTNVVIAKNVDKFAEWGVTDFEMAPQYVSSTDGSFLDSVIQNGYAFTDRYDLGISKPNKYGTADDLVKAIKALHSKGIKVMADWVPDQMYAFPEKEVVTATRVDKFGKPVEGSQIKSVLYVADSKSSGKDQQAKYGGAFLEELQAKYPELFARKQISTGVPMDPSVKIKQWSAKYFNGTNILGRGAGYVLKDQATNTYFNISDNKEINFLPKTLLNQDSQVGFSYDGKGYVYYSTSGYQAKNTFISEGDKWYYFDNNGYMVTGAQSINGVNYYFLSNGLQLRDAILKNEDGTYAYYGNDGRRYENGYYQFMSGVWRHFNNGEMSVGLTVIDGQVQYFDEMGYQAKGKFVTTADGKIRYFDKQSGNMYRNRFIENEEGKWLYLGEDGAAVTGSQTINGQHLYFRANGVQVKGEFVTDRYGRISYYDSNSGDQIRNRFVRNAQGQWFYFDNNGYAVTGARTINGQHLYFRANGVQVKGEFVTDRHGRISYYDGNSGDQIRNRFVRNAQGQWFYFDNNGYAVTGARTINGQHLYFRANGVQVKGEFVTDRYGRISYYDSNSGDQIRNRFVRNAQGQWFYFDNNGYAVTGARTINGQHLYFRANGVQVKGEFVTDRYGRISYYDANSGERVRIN
Experimental: (§1) Glucosyltransferase activity was measured by the incorporation of [^14C-glucose] from labeled sucrose (NEN Research Products, Boston, Mass.) into glucans (Germaine et al., 1974; Venkitaraman et al., 1995). The GTF enzyme added to each sample for all assays was equivalent to the amount required to incorporate 1.0-1.5 μmol of glucose over the four hours reaction (1.0-1.5 units).
(§2) For solution assays, purified GTF B, C, D and Ss were mixed with a two-fold dilution series of the test compounds (concentration ranging from 125 to 500 μM) and incubated with [^14C-glucose]-sucrose substrate (0.2 μCi/ml) (200.0 mmol/l sucrose, 40 μmol/l dextran 9000, 0.02% sodium azide in adsorption buffer—50 mM KCl, 1.0 mM KPO4, 1.0 mM CaCl2, 0.1 mM MgCl2−pH=6.5) to reach a final concentration of 100 mmol/l sucrose (200 μl final volume). For the control, the same reaction was carried out, where ethanol:DMSO (final concentration of 7.5% and 1.25%, v/v) or ethanol (final concentration of 5%, v/v) replaced the test agent solutions. The samples were incubated 37° C. with rocking for 4 h. After incubation, ice-cold ethanol (1.0 ml) was added and the samples were stored for 18 h, 4° C. for precipitation of glucans. Radiolabeled glucan was determined by scintillation counting (Germaine et al., 1974; Venkitaraman et al., 1995).

[3] = target: T2, GTF D (Streptococcus mutans serotype c, UniProt P49331); assay: GTF activity adsorbed onto sHA surface, GTF D; format: biochemical
T2 construct: made in house; host or cells: Streptococcus milleri NH5 (culture supernatant)
T2 sequence (P49331 whole entry): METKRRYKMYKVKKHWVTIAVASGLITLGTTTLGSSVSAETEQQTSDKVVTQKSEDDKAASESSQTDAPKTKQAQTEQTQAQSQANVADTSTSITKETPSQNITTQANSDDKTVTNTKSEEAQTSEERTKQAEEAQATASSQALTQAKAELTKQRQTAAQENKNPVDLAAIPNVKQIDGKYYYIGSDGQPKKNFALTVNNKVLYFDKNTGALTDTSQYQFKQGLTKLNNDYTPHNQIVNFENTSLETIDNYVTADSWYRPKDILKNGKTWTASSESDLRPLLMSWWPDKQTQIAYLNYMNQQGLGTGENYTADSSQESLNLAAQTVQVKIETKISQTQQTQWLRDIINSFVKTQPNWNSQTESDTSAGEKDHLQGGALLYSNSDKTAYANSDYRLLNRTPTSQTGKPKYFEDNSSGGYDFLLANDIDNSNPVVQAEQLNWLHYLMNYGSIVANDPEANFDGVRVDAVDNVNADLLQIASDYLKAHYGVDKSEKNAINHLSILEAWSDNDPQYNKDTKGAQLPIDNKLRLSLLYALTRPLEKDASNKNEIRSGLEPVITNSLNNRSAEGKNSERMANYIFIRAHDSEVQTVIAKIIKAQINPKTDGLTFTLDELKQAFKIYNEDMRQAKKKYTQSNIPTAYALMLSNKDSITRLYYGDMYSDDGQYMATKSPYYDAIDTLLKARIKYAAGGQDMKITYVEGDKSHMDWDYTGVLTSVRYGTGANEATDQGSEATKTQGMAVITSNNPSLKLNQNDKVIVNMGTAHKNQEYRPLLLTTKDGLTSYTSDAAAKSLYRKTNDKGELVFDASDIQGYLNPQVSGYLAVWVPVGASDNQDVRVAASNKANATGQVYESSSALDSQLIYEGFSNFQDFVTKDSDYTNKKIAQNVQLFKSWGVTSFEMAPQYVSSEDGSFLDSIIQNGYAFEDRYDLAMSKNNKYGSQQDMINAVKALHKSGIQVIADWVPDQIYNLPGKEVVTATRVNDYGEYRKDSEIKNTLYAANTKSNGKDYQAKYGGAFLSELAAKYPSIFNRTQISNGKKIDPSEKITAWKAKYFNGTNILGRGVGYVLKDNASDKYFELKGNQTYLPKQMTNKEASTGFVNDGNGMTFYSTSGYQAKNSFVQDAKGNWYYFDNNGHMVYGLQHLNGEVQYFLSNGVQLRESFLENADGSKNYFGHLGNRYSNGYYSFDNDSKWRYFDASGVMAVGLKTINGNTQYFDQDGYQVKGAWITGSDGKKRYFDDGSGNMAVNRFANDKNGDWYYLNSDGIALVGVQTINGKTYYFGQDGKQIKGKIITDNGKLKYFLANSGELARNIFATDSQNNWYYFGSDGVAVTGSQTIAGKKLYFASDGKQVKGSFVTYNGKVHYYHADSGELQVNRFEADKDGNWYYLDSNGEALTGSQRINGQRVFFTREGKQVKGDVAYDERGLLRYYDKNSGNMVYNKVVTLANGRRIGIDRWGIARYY
Experimental: as §1
(§3) For surface assays, the GTFs were adsorbed to hydroxyapatite beads coated with clarified whole saliva (free of GTF activity), as detailed elsewhere (Koo et al., 2000c; Schilling and Bowen, 1988, Venkitaraman et al., 1995). The saliva-coated hydroxyapatite (sHA) beads were exposed to sufficient enzyme to saturate the surface as determined experimentally. Following the adsorption of the enzyme, the beads were washed 3 times with buffer to remove the loosely bound material and exposed to 300 μl of the two-fold dilution series of test compounds (or control) for 30 min. at the same concentrations described above. The beads were washed and exposed to 300 μl [^14C-glucose]-sucrose substrate (100.0 mmol/l sucrose, final concentration). The radiolabeled glucan formed was collected and quantified by scintillation counting (Germaine et al., 1974; Venkitaraman et al., 1995). All the solution and surface assays were done in quadruplicate in at least 3 different experiments.

[4] = target: T3, GTF Ss (Streptococcus sanguinis, UniProt A3CLJ9); assay: GTF activity in solution, GTF Ss; format: biochemical, S. sanguinis; settings: read-out: GTF Ss sol. % of Inhib.
Experimental: as §1, §2

[5] = target: T3, GTF Ss; assay: GTF activity adsorbed onto sHA surface, GTF Ss; format: biochemical, S. sanguinis
Experimental: as §1, §3

[6] = target: T4, GTF C (Streptococcus mutans serotype c, UniProt P13470); assay: GTF activity adsorbed onto sHA surface, GTF C; format: biochemical
T4 construct: The supernatant was carefully collected as the source of GTF C; made in house; host or cells: Streptococcus mutans WHB 410 (endogenous gtfC; urea/Triton extract of washed cells, hydroxyapatite chromatography)
T4 sequence (P13470 35-1455): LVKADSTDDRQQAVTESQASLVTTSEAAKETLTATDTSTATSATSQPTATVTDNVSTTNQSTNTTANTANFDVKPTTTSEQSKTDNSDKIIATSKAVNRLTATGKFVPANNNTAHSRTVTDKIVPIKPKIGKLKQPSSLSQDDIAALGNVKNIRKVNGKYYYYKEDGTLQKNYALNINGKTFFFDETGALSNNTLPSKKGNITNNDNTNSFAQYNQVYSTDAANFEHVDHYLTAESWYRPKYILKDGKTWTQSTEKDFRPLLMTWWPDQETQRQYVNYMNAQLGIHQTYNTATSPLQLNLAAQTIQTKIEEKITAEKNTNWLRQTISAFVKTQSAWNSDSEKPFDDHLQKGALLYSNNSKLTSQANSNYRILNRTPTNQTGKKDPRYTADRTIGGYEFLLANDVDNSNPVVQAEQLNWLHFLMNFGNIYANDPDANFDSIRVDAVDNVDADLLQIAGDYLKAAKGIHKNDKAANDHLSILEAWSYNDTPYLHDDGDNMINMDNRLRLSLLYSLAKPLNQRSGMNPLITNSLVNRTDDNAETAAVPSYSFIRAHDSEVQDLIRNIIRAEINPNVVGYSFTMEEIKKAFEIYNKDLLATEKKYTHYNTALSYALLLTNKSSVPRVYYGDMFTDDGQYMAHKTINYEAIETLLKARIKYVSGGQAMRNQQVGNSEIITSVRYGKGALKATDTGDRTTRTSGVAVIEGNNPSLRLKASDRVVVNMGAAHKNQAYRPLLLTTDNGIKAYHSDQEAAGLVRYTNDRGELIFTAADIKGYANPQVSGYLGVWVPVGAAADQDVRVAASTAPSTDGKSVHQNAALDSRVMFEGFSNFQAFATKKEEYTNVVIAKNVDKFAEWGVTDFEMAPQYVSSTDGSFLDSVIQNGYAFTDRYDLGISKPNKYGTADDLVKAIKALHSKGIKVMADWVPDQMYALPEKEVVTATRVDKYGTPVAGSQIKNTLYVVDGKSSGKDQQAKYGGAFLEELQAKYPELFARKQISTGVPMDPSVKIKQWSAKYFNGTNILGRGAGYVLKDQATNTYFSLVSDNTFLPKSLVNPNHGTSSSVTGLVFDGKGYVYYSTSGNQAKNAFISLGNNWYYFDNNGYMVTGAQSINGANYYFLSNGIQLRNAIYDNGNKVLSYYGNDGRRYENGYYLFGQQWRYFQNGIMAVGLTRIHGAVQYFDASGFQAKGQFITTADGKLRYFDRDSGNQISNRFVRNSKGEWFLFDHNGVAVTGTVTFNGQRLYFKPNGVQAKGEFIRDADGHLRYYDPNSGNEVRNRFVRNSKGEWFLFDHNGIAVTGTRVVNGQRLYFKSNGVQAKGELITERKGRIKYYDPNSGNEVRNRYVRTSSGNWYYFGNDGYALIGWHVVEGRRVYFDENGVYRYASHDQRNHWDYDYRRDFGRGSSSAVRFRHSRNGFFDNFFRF
Experimental: as §1, §3

[7] = target: T2, GTF D; assay: GTF activity in solution, GTF D; format: biochemical; settings: read-out: GTF D sol. % of Inhib.
Experimental: as §1, §2

[8] = read-out: GTF D surf. % of Inhib.
[9] = read-out: GTF Ss surf. % of Inhib.
[10] = read-out: GTF C surf. % of Inhib.

With `O=c1cc(-c2ccc(O)cc2)oc2cc(O)cc(O)c12` [Apigenin] the “smooth-surface caries severity scores versus control (in words)” value [1] was “significantly lower”, the inhibition at 125 µM [2] was 78.3% and the inhibition at 250 µM [2] was 92.8%. It also gave an inhibition at 500 µM [2] of 94.3%, an IC50 [3] greater than 1000 µM and an inhibition at 125 µM [3, 8] of 17%. It also gave an inhibition at 250 µM [3, 8] of 25.5%, an inhibition at 500 µM [3, 8] of 33% and an inhibition at 125 µM [4] of 83.2%. For the same molecule, the inhibition at 250 µM [4] was 91.2%, the inhibition at 500 µM [4] was 92.7% and the inhibition at 125 µM [5, 9] was 13.8%. For the same molecule, the inhibition at 250 µM [5, 9] was 20.2%, the inhibition at 500 µM [5, 9] was 30% and the IC50 ([5]; read-out: IC50 for surface-adsorbed GTF SS, surface-adsorbed) was greater than 1000 µM. The IC50 ([6]; IC50 for surface-adsorbed GTF C, surface-adsorbed) was 458 µM and 451 µM, the inhibition at 125 µM [6, 10] was 30% and the inhibition at 250 µM [6, 10] was 42.1%. It also gave an inhibition at 500 µM [6, 10] of 60.5%, an inhibition at 125 µM [7] of 70.8% and an inhibition at 250 µM [7] of 90.2%. The inhibition at 500 µM [7] was 95%.
